Experiment [1] has as its target EGFR (human) (UniProt P00533). Conditions: for activity: 10.0 µM.
Experiment [2] concerns the target CDK2 (human) (UniProt P24941). Kind of experiment: Enzyme Assay. Conditions: for activity: 10.0 µM.
Experiment [3] relates to EGFR (human), P00533 [S752-I759del]. Conditions: 10.0 µM.
The test system of experiment [4] is EGFR (human), P00533 [G719C]. Conditions: 10.0 µM.
For experiment [5], the system named is EGFR (human), P00533 [E746-A750del]. The settings on record: 10.0 µM.
Experiment [6] concerns EGFR (human), P00533 [L747-S752del, P753S]. The settings on record: 10.0 µM.
For experiment [7], the system named is EGFR (Human), P00533 [T790M/L858R]. The settings on record: 10.0 µM.
Experiment [8] concerns EGFR (human), P00533 [G719S]. Conditions: 10.0 µM.
The subject of experiment [9] is EGFR (human), P00533 [L858R]. Conditions: 10.0 µM.
For experiment [10], the system named is EGFR (human), P00533 [L747-E749del, A750P]. The settings on record: 10.0 µM.
The test system of experiment [11] is EGFR (human), P00533 [T790M]. Conditions: 10.0 µM.
For experiment [12], the system named is EGFR (human), P00533 [L861Q]. The settings on record: 10.0 µM.
Experiment [13] deals with EGFR (human), P00533 [L747-T751del,Sins]. Conditions: 10.0 µM.
Experiment [14] addresses PIK3CD (Human) (UniProt O00329). Kind of experiment: Enzyme Assay. Conditions: 10.0 µM.
Experiment [15] concerns PIK3CA (human), P42336 [I800L]. Kind of experiment: Enzyme Assay. Conditions: 10.0 µM.
In experiment [16] the target is PIK3CG (human) (UniProt P48736). The experiment can be described thus: Enzyme Assay. Conditions: 10.0 µM.
The subject of experiment [17] is PIK3CA (human), P42336 [Q546K]. Kind of experiment: Enzyme Assay. The settings on record: 10.0 µM.
The subject of experiment [18] is PIK3CA (human), P42336 [H1047Y]. Kind of experiment: Enzyme Assay. Conditions: 10.0 µM.
For experiment [19], the system named is PIK3CA (human), P42336 [E545K]. The experiment can be described thus: Enzyme Assay. Conditions: 10.0 µM.
PIK3CA (human), P42336 [E545K], sequence (P42336 whole entry E545K, looked up): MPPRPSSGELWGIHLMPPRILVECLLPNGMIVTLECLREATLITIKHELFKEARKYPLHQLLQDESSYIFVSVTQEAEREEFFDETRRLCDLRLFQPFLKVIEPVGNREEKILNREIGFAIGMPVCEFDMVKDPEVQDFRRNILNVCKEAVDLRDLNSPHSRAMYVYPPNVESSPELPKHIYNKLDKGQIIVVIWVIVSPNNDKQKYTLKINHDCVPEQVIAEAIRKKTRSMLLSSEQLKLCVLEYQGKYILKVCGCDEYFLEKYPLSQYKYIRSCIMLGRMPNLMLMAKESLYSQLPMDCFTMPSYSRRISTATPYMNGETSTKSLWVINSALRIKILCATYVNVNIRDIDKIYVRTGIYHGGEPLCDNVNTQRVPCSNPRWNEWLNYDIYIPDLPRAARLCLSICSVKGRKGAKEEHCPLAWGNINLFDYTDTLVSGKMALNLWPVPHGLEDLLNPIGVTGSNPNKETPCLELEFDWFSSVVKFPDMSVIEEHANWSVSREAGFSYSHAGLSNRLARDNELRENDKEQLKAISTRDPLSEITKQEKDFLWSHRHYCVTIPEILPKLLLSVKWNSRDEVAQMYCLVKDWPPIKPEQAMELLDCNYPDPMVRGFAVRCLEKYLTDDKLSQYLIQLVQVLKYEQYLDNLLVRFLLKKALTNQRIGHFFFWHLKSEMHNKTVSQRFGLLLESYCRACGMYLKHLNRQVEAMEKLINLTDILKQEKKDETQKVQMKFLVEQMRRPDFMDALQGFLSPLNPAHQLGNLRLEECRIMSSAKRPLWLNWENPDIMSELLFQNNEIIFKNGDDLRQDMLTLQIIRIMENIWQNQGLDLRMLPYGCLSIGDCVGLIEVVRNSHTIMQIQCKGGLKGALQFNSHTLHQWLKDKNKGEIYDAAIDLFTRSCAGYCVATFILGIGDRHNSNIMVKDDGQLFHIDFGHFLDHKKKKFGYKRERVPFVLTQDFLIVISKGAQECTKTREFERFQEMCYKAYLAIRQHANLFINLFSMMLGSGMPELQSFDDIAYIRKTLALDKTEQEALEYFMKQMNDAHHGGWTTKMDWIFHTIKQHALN
The test system of experiment [20] is PIK3CA (human), P42336 [C420R]. The experiment can be described thus: Enzyme Assay. The settings on record: 10.0 µM.
The test system of experiment [21] is PIK3CA (human), P42336 [E542K]. Kind of experiment: Enzyme Assay. Conditions: 10.0 µM.
PIK3CA (human), P42336 [E542K], sequence (P42336 whole entry E542K, looked up): as the sequence (P42336 whole entry E545K, looked up) above, with E542K, K545E counted along it
In experiment [22] the test system is PIK3CA (human), P42336 [H1047L]. Kind of experiment: Enzyme Assay. The settings on record: 10.0 µM.
Experiment [23] has as its target ROCK2 (human) (UniProt O75116). Kind of experiment: Enzyme Assay. The settings on record: 10.0 µM.
Experiment [24] deals with PIK3CA (human), P42336 [M1043I]. The experiment can be described thus: Enzyme Assay. Conditions: 10.0 µM.
The subject of experiment [25] is PIK3CA (human), P42336 [E545A]. Kind of experiment: Enzyme Assay. The settings on record: 10.0 µM.
The target of experiment [26] is PIK3CA (human) (UniProt P42336). Kind of experiment: Enzyme Assay. The settings on record: 10.0 µM.
PIK3CA (human), sequence (P42336 whole entry, looked up): as the sequence (P42336 whole entry E545K, looked up) above, with K545E counted along it
In experiment [27] the target is MAPK14 (human) (UniProt Q16539). The experiment can be described thus: Enzyme Assay. The settings on record: for activity: 10.0 µM.
MAPK14 (human), sequence (Q16539 whole entry, looked up): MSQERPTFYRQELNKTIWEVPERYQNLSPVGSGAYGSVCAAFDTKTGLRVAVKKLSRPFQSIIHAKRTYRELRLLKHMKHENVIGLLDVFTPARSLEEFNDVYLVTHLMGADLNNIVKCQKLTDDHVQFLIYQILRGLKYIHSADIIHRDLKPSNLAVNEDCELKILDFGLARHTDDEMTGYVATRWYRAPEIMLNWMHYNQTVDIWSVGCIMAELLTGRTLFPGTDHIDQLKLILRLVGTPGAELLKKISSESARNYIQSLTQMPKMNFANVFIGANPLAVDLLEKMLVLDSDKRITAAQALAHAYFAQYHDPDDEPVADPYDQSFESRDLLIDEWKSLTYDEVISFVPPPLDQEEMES
In experiment [28] the target is PIK3CB (Human) (UniProt P42338). The experiment can be described thus: Enzyme Assay. Conditions: 10.0 µM.
PIK3CB (Human), sequence (P42338 whole entry, looked up): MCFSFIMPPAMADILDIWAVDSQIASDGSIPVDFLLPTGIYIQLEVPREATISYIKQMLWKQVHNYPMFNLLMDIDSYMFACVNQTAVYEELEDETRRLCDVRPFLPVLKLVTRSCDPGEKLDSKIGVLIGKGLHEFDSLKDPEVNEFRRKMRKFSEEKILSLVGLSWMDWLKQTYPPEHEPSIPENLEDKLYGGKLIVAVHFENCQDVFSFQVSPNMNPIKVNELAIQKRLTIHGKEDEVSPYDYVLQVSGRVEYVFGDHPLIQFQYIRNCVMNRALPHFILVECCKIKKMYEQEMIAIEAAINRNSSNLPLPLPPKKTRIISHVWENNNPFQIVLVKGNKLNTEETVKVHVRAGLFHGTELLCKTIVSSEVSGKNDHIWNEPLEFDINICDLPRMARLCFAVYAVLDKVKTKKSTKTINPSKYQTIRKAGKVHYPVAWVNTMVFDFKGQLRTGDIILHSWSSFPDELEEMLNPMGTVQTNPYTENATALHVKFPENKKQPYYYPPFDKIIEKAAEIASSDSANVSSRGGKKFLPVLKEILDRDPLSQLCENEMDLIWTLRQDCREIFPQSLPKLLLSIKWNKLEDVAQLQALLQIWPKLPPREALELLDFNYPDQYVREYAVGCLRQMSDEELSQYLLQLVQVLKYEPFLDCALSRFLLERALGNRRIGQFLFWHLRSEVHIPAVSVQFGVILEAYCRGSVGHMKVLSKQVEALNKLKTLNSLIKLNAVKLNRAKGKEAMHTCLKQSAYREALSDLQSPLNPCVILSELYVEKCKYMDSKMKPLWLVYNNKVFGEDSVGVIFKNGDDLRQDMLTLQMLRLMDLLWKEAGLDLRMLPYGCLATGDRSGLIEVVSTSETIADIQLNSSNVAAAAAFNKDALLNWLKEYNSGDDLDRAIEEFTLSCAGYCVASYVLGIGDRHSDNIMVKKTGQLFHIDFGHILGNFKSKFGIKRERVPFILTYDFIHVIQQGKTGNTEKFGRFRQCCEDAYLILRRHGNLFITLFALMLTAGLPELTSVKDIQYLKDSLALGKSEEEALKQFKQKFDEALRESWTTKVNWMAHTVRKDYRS

In the case of `O=C(Nc1ccc(OC(F)(F)F)cc1)c1sccc1NCc1ccnc2ccccc12`, the IC50 in experiment [1] and in experiment [2] was > 10 µM each time.

For the molecule `Cc1ccc(C(=O)Nc2cccc(C(F)(F)F)c2)cc1Nc1nc(-c2cccnc2)nc2c1cnn2C`, in [1], the IC50 is > 10 µM.

As for `Cc1ccc(NC(=O)c2cccc(C(C)(C)C#N)c2)cc1Nc1ccc2ncn(C)c(=O)c2c1`, the activity is 17% in [3]; 49% in [4]; 15% in experiment [5]; 19% in experiment [6]; 99% in [7]; 37% in experiment [8]. The activity in experiment [9] was 48%; in experiment [10] it was 11%; in [1], 37%; in experiment [11] it was 79%; in experiment [12], 34%; in [13], 14%. In addition, the activity in [14] worked out at 99%; in [15] it was 100%; in [16] it was 99%; in [2] it was 100%; in experiment [17], 88%; in [18], 100%. The activity in [19] was 100%; in experiment [20] it was 100%; in experiment [21], 100%; in experiment [22] it was 100%; in [23], 80%; in [24] it was 89%. Besides, the activity is 89% in [25], 100% in experiment [26], 0% in [27] and 100% in experiment [28].

As for `COc1cc2c(Nc3ccc(NC(=O)c4ccccc4)cc3)ncnc2cc1OCCCN1CCOCC1`, the activity worked out at 14% in [3]; 0% in experiment [4]; 36% in experiment [5]; 41% in experiment [6]; 85% in experiment [7]; 0% in [8]. The activity in experiment [9] stood at 8%; in experiment [10], 22%; in experiment [1], 0%; in [11], 42%; in experiment [12], 6%; in [13], 26%. For the same molecule, the activity in experiment [14] was 100%; in experiment [15] it was 100%; in experiment [16] it was 100%; in experiment [2], 82%; in [17], 17%; in experiment [18], 24%. The activity was 98% in experiment [19]; 68% in experiment [20]; 100% in experiment [21]; 99% in [22]; 34% in experiment [23]; 99% in experiment [24]. Further, the activity in experiment [25] turned out to be 19%; in experiment [26] it was 100%; in experiment [27], 100%; in experiment [28], 81%.

In turn, `Cc1csc(-c2nnc(Nc3ccc(Oc4ncccc4-c4ccnc(N)n4)cc3)c3ccccc23)c1` came in with a half-inhibitory concentration (IC50) in experiment [27] of 0.053 µM.

The term IC50 denotes the concentration that inhibits the measured activity by half.
